From ChEMBL document CHEMBL5465560, “Selectivity Literature for EUbOPEN Chemogenomic Library” (2024) come the findings set out here.

In assay [1] the target is T1, Mitogen-activated protein kinase kinase kinase kinase 2 (Homo sapiens) (UniProt Q12851).
T1 sequence (whole entry): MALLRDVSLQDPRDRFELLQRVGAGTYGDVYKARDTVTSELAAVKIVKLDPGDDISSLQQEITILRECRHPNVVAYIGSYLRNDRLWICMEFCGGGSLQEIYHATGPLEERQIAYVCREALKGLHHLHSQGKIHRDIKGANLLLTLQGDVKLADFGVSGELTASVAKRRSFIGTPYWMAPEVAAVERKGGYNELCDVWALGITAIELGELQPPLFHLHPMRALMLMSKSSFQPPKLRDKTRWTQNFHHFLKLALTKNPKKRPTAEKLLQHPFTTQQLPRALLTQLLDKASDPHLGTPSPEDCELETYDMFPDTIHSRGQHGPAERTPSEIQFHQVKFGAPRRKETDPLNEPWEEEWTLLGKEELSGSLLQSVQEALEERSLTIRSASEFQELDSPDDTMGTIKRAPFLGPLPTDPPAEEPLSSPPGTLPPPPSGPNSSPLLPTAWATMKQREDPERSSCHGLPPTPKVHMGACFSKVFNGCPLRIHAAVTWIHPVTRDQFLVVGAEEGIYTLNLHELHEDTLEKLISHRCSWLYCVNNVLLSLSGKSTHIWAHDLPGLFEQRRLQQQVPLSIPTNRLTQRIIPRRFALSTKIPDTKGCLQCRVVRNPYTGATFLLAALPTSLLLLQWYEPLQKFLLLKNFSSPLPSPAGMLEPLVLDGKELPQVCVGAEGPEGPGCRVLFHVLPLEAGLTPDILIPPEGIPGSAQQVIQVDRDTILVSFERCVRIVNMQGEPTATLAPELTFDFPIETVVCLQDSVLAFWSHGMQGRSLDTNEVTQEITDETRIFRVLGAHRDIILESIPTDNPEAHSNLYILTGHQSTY
To be noted: at 10 µM.

In assay [2] the target is T2, Inhibitor of nuclear factor kappa-B kinase subunit alpha (Homo sapiens) (UniProt O15111).
T2 sequence (whole entry): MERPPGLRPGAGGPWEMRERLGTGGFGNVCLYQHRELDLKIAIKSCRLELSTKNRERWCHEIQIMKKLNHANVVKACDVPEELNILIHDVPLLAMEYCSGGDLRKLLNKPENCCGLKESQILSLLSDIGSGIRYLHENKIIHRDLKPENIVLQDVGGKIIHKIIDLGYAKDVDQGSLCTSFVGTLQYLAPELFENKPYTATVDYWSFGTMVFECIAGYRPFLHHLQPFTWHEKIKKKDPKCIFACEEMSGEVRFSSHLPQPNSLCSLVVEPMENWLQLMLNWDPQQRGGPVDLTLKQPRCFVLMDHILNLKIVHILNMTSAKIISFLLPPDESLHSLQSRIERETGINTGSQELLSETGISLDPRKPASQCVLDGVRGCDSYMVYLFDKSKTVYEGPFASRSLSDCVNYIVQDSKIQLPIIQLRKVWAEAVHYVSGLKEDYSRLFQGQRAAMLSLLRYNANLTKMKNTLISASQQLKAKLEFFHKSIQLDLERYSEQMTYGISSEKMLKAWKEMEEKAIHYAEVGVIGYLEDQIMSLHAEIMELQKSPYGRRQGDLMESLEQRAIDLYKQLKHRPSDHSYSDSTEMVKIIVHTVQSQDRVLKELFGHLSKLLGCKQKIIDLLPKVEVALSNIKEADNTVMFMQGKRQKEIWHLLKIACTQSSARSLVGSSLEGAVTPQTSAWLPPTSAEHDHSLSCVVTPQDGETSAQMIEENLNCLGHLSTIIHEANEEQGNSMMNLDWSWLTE
In words: Selectivity interaction (KinomeScan (DiscoverX)) EUB0000666a CHUK. To be noted: at 10 µM.

Assay [3] has as its target STE20/SPS1-related proline-alanine-rich protein kinase (Homo sapiens) (UniProt Q9UEW8). The assay is described as follows: Selectivity interaction (KinomeScan (DiscoverX)) EUB0000655a STK39. To be noted: at 10 µM.
In assay [4] the target is T3, Mitogen-activated protein kinase kinase kinase 13 (Homo sapiens) (UniProt O43283).
T3 sequence (whole entry): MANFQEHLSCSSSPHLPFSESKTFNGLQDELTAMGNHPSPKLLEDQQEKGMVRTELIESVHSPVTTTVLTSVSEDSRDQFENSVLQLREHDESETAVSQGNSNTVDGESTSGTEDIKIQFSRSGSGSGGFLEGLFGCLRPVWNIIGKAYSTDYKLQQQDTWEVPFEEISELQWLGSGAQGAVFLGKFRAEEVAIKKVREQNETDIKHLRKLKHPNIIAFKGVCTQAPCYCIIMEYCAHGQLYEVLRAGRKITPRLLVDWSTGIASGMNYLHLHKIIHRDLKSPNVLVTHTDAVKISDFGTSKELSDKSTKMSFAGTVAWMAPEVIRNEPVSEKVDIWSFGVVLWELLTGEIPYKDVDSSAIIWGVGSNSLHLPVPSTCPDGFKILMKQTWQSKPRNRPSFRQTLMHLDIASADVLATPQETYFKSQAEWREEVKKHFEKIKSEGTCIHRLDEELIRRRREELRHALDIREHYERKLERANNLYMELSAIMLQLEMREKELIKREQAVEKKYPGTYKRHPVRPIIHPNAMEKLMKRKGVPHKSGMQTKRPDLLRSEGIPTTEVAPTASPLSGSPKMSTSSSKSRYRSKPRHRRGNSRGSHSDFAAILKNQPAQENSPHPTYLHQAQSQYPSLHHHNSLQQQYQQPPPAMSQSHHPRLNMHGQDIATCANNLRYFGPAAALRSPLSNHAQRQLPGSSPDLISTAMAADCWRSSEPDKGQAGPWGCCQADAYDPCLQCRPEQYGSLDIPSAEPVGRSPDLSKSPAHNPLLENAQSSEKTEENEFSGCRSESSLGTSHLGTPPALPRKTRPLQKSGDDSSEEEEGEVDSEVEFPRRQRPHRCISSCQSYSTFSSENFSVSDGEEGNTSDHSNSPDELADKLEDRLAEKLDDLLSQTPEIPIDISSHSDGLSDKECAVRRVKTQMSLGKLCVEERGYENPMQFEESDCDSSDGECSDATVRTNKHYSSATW
The assay is described as follows: Selectivity interaction (KinomeScan (DiscoverX)) EUB0001079a MAP3K13. Particulars: at 1 µM.

Assay [5] has as its target T4, Aurora kinase A (Homo sapiens) (UniProt O14965).
T4 sequence (whole entry): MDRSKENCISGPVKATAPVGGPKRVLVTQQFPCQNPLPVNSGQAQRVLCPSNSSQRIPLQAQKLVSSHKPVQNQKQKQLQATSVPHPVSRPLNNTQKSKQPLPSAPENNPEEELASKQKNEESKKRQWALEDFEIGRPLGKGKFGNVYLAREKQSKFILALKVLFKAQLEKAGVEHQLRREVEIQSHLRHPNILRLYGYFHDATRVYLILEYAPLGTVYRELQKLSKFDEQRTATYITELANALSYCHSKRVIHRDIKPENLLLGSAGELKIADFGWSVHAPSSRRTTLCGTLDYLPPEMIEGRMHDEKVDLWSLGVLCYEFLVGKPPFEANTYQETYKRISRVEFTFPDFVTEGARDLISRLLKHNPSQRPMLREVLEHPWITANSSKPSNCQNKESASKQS
The assay is described as follows: Selectivity interaction (KinomeScan (DiscoverX)) EUB0001049a STK6. To be noted: at 1 µM.

Molecule `Cc1cc([C@@H](C)Nc2ccccc2C(=O)O)c2nc(N3CCOCC3)cc(=O)n2c1` [AZD-6482] registered a % of control in assay [1] of 56%.

As for `O=C(NOC[C@H](O)CO)c1ccc(F)c(F)c1Nc1ccc(I)cc1F`, in assay [2], the % of control was found to be 100%.

In assay [3], `CN(C)CCOc1ccc(-c2nc(-c3ccncc3)c(-c3ccc4c(c3)CC/C4=N\O)[nH]2)cc1` returned a % of control of 100%.

Molecule `Nc1cnc(N2CCc3cc(S(=O)(=O)Nc4c(F)cc(Cl)cc4F)cc(N4CCCC4=O)c32)nc1` [TP-020n] showed a % of control in assay [4] of 100%.

For the molecule `COc1cc(Nc2nc(C)cc(-c3cnn4nc(OC)ccc34)n2)cc(C(F)(F)F)c1`, the % of control in assay [5] turned out to be 93%.
